Experimental data from patent publication US12064464B2, “Plantaricin NC8 alpha beta markedly enhances the effects of antibiotics” (priority 2018, dated 2024).
“Also recorded” adds a separate entry of the source. Like-named read-outs stand apart in the source and are kept apart here.

Experiments:
[1] = test system: Pseudomonas aeruginosa; assay: Broth microdilution MIC/MBC; assay type: cell-based; settings: P. aeruginosa, antibiotic alone, unit not given
Source text: (§1) Staphylococcus aureus CCUG 35601 (MRSA, Culture Collection, University of Gothenburg) and Staphylococcus aureus ATCC 29213 (MSSA, ATCC, Manassas, VA). Staphylococcus epidermidis ATCC 12228 (ATCC, Manassas, VA), RP62A, N15 and 10 clinical isolates of Staphylococcus epidermidis that have previously been characterized. Isolated Escherichia coli, Enterococcus faecium (including VRE), Pseudomonas aeruginosa, Klebsiella pneumoniae, Enterobacter spp and Acinetobacter baumannii were obtained from Orebro University hospital. Isolated Streptococcus mutans, Streptococcus constellatus and Streptococcus anginosus were obtained from Malmo University. The bacteria were grown on Luria-Bertani (LB) agar plates, supplemented with 5% defibrinated horse blood, and incubated at 37° C. overnight. Single colonies were inoculated into 5 ml of LB broth and incubated on a shaker (300 rpm) at 37° C. overnight. The bacterial concentration was determined by viable count and adjusted to correlate with approximately 10^9 CFU/ml.
(§2) The broth microdilution method was used to determine minimal inhibitory concentration (MIC) and minimal bactericidal concentration (MBC). Two-fold serial dilutions of the peptides were used and the final concentrations ranged from 0.097-50 μM. […] The effect of bacteriocin-antibiotic combinations was accomplished by using the same concentration series of antibiotics with a constant concentration of PLNC8 αβ (3.1 μM) in all the wells. […] All experiments were repeated at least three times.

[2] = test system: S. epidermidis ATCC 12228; assay: Broth microdilution MIC/MBC; assay type: cell-based, Staphylococcus epidermidis; settings: for enhancement of the inhibitory effects of β1-20 and β7-20: co-incubation with α-peptide; for inhibitory and bactericidal effects on S. epidermidis: α-peptide in combination with the β-peptide; for growth inhibition of S. epidermidis: single full-length or truncated peptide
Source text: as §1, §2

[3] = test system: Enterococcus faecium; assay: Broth microdilution MIC/MBC; assay type: cell-based; settings: antibiotic alone, unit inferred; for MIC: unit assumed
Source text: as §1, §2

[4] = test system: Escherichia coli; assay: Broth microdilution MIC/MBC; assay type: cell-based; settings: antibiotic alone, unit not given; for MBC: in µg/mL
Source text: as §1, §2

[5] = test system: S. epidermidis; assay: Broth microdilution MIC/MBC, strain not named; assay type: cell-based, Staphylococcus epidermidis; settings: for MBC / MIC: Table 8, antibiotic alone
Source text: as §1, §2

[6] = test system: S. aureus CCUG 35601 (MRSA); assay: Broth microdilution MIC/MBC; assay type: cell-based, Staphylococcus aureus
Source text: as §1, §2

[7] = test system: S. epidermidis 126 (hGISE strain); assay: Broth microdilution MIC/MBC; assay type: cell-based, Staphylococcus epidermidis
Source text: as §1, §2

[8] = test system: S. epidermidis 154; assay: Broth microdilution MIC/MBC; assay type: cell-based, Staphylococcus epidermidis
Source text: as §1, §2

[9] = test system: S. epidermidis 157 (hGISE strain); assay: Broth microdilution MIC/MBC; assay type: cell-based, Staphylococcus epidermidis
Source text: as §1, §2

[10] = Fluorescence leakage assay (CF release from liposomes); settings: for disruption of liposome membranes (CF release): peptide alone; for lysis of liposomes: after 2 min, both the L-form and D-form
Experimental: Liposomes were prepared by dry film formation, hydration and finally extrusion through a polycarbonate membrane to form monodisperse large unilamellar vesicles. […] A dry lipid film was formed by evaporation of the chloroform by nitrogen flow and overnight lyophilization. The film was hydrated with either 10 mM phosphate buffer (PB) pH 7 or 10 mM phosphate buffer saline (PBS) pH 7, and the solution was vortexed for 1 min and put on a shaker for 1 h before extruded 21 times through a 100 nm pore-sized polycarbonate membrane. For fluorescence leakage assay the lipid film was hydrated with buffer (PBS) containing self-quenching concentration (50 mM) of 5(6)-carboxyfluorescein (CF) (Sigma Aldrich) and liposomes were prepared as described above. Removal of unencapsulated CF was done by gel filtration using a PD-25 column (GE Healthcare, Uppsala, Sweden) and liposomes with encapsulated CF were eluted with PBS. Leakage of the liposome encapsulated fluorophore CF due to additions of the bacteriocins was recorded using a fluorescence plate reader (Infinite 200, Tecan, Austria) where λex=485 nm and λem=520 nm. CF was encapsulated at self-quenching concentration, and CF release results in an increased fluorescence signal. […] In order to estimate the maximum release from each sample a final addition of 0.5% Triton X-100 was made at the end of all measurements and the total amount of CF (100% release) was estimated after 15 min incubation. The CF release is presented as percentage release for each time interval (measurements taken every minute). The percentage CF release is calculated as 100×(F−F0)/(FT−F0) where F0 is the initial fluorescence intensity of CF before peptide addition, F is the fluorescence intensity of CF at time point t and FT is the maximum fluorescence after the addition of Triton X-100.

[11] = test system: S. epidermidis RP62A biofilms; assay: Bacterial biofilm disruption; assay type: cell-based, Staphylococcus epidermidis; settings: 1 h
Experimental: S. epidermidis RP62A was inoculated into 5 ml of LB broth and incubated on a shaker at 37° C. overnight. The bacterial culture was diluted 1:100 into fresh media and 100 μl of bacterial suspension per well was added in a 96-well microtiter plate and incubated statically at 37° C. for 20 h. The wells were washed three times by submerging the plate into a container with distilled water to remove unattached cells. Fresh LB media was added to each well (100 μl) followed by addition of the peptides in different concentrations. The plate was incubated statically for 1 h. Detached material in the wells were transferred to a new microtiter plate for absorbance measurements at 620 nm. The remaining attached biofilms were stained with 0.1% crystal violet for 15 min before the plate was washed four times in distilled water as mentioned above and allowed to dry at room temperature for 2 h. The crystal violet was solubilized in 30% acetic acid for 15 min and the absorbance quantified at 550 nm. Each experiment, with three replicates, was repeated three times.

[12] = Vancomycin resistant E. faecium (VRE)
[13] = Non-ESBL E. coli, first isolate
[14] = Non-ESBL E. coli, second isolate
[15] = Staphylococcus epidermidis, 154
[16] = Staphylococcus epidermidis, ATCC12228
[17] = ESBL-producing E. coli, first isolate
[18] = ESBL-producing E. coli, second isolate
[19] = Table 3, MRSA, antibiotic alone

C[C@H]1COc2c(N3CCN(C)CC3)c(F)cc3c(=O)c(C(=O)O)cn1c23 [Levofloxacin, reference compound]
MBC ([1]; first isolate): 2
MIC ([1]; first isolate): 1
MBC ([1]; second isolate): 4
MIC ([1]; second isolate): 4

C[C@@H](O)[C@H]1C(=O)N2C(C(=O)O)=C(S[C@@H]3CN[C@H](C(=O)N(C)C)C3)[C@H](C)[C@H]12 [Meropenem, reference compound]
MBC ([1]; first isolate): 50
MIC ([1]; first isolate): 25
MBC ([1]; second isolate): 25
MIC ([1]; second isolate): 25

CO[C@H]1/C=C/O[C@@]2(C)Oc3c(C)c(O)c4c(O)c(c(/C=N/N5CCN(C)CC5)c(O)c4c3C2=O)NC(=O)/C(C)=C\C=C\[C@H](C)[C@H](O)[C@@H](C)[C@@H](O)[C@@H](C)[C@H](OC(C)=O)[C@@H]1C [Rifampicin]
MBC ([2]; Staphylococcus epidermidis, ATCC12228, Table 2, antibiotic alone, read-out: MBC): 0.5 µg/mL
MIC ([2]; Staphylococcus epidermidis, ATCC12228, Table 2, antibiotic alone, read-out: MIC): 0.25 µg/mL
MBC ([3]; E. faecium, first isolate): > 50 µg/mL
MIC ([3]; E. faecium, first isolate): > 50 µg/mL
MBC ([3]; E. faecium, second isolate): > 50 µg/mL
MIC ([3]; E. faecium, second isolate): 25 µg/mL
MBC [3, 12]: 3.1 µg/mL
MIC [3, 12]: < 0.097 µg/mL
MIC [4, 13]: 6.25
MIC [4, 14]: 6.25
MBC [4, 14]: 25
MBC ([5]; Staphylococcus epidermidis, read-out: MBC): 0.5 µg/mL
MIC ([5]; Staphylococcus epidermidis, read-out: MIC): 0.25 µg/mL
effective amount of rifampicin ([5]; in the presence of L-PLNC8 αβ or D-PLNC8 αβ): 0.0019 µg/mL

CN[C@H](CC(C)C)C(=O)N[C@H]1C(=O)N[C@@H](CC(N)=O)C(=O)N[C@H]2C(=O)N[C@H]3C(=O)N[C@H](C(=O)N[C@H](C(=O)O)c4cc(O)cc(O)c4-c4cc3ccc4O)[C@H](O)c3ccc(c(Cl)c3)Oc3cc2cc(c3O[C@@H]2O[C@H](CO)[C@@H](O)[C@H](O)[C@H]2O[C@H]2C[C@](C)(N)[C@H](O)[C@H](C)O2)Oc2ccc(cc2Cl)[C@H]1O [Vancomycin]
MBC ([6]; Staphylococcus aureus): 3.1 µg/mL
MIC ([6]; Staphylococcus aureus): 1.5 µg/mL
MBC ([7]; Staphylococcus epidermidis): 3.1 µg/mL
MIC ([7]; Staphylococcus epidermidis): 3.1 µg/mL
MBC [8, 15]: 3.1 µg/mL
MIC [8, 15]: 1.5 µg/mL
MBC ([9]; Staphylococcus epidermidis): 6.25 µg/mL
MIC ([9]; Staphylococcus epidermidis): 6.25 µg/mL
MBC [2, 16]: 3.1 µg/mL
MIC [2, 16]: 1.5 µg/mL

DLTTKLWSSWGYYLG (Lactobacillus plantarum NC8) [α1-15]
enhancement of the inhibitory effects of β1-20 and β7-20 [2]: not further enhanced; also recorded: did not further enhance

DLTTKLWSSWGYYLGKKARWNL (Lactobacillus plantarum NC8) [α1-22]
enhancement of the inhibitory effects of β1-20 and β7-20 [2]: not further enhanced; also recorded: did not further enhance
inhibitory and bactericidal effects on S. epidermidis [2]: exerted inhibitory and bactericidal effects; also recorded: inhibited
disruption of liposome membranes (CF release) [10]: disrupted the membrane of the liposomes

Gentamicin
MBC ([2]; Table 2, antibiotic alone): 0.31 µg/mL
MIC ([2]; Table 2, antibiotic alone): 0.31 µg/mL
MBC ([3]; E. faecium, first isolate): > 50 µg/mL
MIC ([3]; E. faecium, first isolate): 50 µg/mL
MBC ([3]; E. faecium, second isolate): 50 µg/mL
MIC ([3]; E. faecium, second isolate): 50 µg/mL
MBC [3, 12]: > 50 µg/mL
MIC [3, 12]: > 50 µg/mL
MIC [4, 17]: >50
MBC [4, 17]: >50
MIC [4, 18]: 3.125
MBC [4, 18]: 6.25
MIC [4, 13]: 1.56
MBC [4, 13]: 1.56
MIC [4, 14]: 1.56
MBC [4, 14]: 3.125

H-DLTTKLWSSWGYYLGKKARWNLKHPYVQF-OH [PLNC8 α]
enhancement of the inhibitory effects of β1-20 and β7-20 [2]: not further enhanced
inhibitory and bactericidal effects on S. epidermidis [2]: inhibited
lysis of liposomes [10]: not
disruption of liposome membranes (CF release) [10]: disrupted the membrane of the liposomes
disruption of biofilms [11]: disruptive effects on the biofilms

H-SVPTSVYTLGIKILWSAYKHRKTIEKSFNKGFYH-OH [PLNC8 β]
growth inhibition of S. epidermidis [2]: inhibited
lysis of liposomes [10]: complete lysis of liposomes after 2 min
disruption of liposome membranes (CF release) [10]: Disruption of the liposome membranes
disruption of biofilms [11]: disruptive effects on the biofilms

SVPTSVYTLGIKILWSAYKH (Lactobacillus plantarum NC8) [β1-20]
growth inhibition of S. epidermidis [2]: most efficiently inhibited; also recorded: most effective in inhibiting S. epidermidis; also recorded: inhibited
disruption of liposome membranes (CF release) [10]: Disruption of the liposome membranes

Teicoplanin
MBC [6, 19]: 3.1 µg/mL
MIC [6, 19]: 0.78 µg/mL
MBC ([7]; Table 3, antibiotic alone): 6.25 µg/mL
MIC ([7]; Table 3, antibiotic alone): 3.1 µg/mL
MBC ([8]; Table 3, antibiotic alone): 1.5 µg/mL
MIC ([8]; Table 3, antibiotic alone): 1.5 µg/mL
MBC ([9]; Table 3, antibiotic alone): 25 µg/mL
MIC ([9]; Table 3, antibiotic alone): 12.5 µg/mL
MBC ([2]; Table 2, antibiotic alone): 1.5 µg/mL
MIC ([2]; Table 2, antibiotic alone): 1.5 µg/mL
MBC ([3]; E. faecium, first isolate): > 50 µg/mL
MIC ([3]; E. faecium, first isolate): > 50 µg/mL
MBC ([3]; E. faecium, second isolate): 25 µg/mL
MIC ([3]; E. faecium, second isolate): 0.39 µg/mL
MBC [3, 12]: 50 µg/mL
MIC [3, 12]: 0.39 µg/mL
MIC [4, 17]: >50
MBC [4, 17]: >50
MIC [4, 18]: >50
MBC [4, 18]: >50
MIC [4, 13]: >50
MBC [4, 13]: >50
MIC [4, 14]: >50
MBC [4, 14]: >50
MBC [5]: 1.5 µg/mL
MIC [5]: 1.5 µg/mL

YTLGIKILWSAYKH (Lactobacillus plantarum NC8) [β7-20]
growth inhibition of S. epidermidis [2]: most efficiently inhibited; also recorded: inhibited
disruption of liposome membranes (CF release) [10]: Disruption of the liposome membranes

YTLGIKILWSAYKHRKTIEKSFNKGFYH (Lactobacillus plantarum NC8) [β7-34]
growth inhibition of S. epidermidis [2]: inhibited
disruption of liposome membranes (CF release) [10]: Disruption of the liposome membranes
